Broadly, the Km is the concentration of substrate that gives half-maximal velocity.

Structures are written as SMILES.

For the assay, the system named is T1, A. niger lipase.
T1 construct: commercial preparation, Fluka Analytical
The experiment in a line: fluorescence, 4-mU release. Format: biochemical, Aspergillus niger. The conditions noted are these: 0.1 M phosphate pH 7, 30 °C, 5% DMSO. The source says: fluorescence, 4-mU release on A. niger lipase

For the compound `COC(=O)c1ccc(C(=O)Oc2ccc3c(C)cc(=O)oc3c2)cc1` [A, Methyl (4-Methyl-2-oxo-2H-chromen-7-yl) Terephthalate], the Km stood at 5.7 ± 0.5 µM.
To `CCOCCOC(=O)c1ccc(C(=O)Oc2ccc3c(C)cc(=O)oc3c2)cc1` [B, 2-Ethoxyethyl (4-Methyl-2-oxo-2H-chromen-7-yl) Terephthalate] belongs 1 ± 0.1 µM.
Turning to `COC(=O)c1ccc(C(=O)OCCOC(=O)c2ccc(C(=O)Oc3ccc4c(C)cc(=O)oc4c3)cc2)cc1` [C, 2-((4-(Methoxycarbonyl)benzoyl)oxy)ethyl (4-Methyl-2-oxo-2H-chromen-7-yl) Terephthalate], the Km amounted to 0.6 ± 0.1 µM.

Values taken from PMC11187625, “New Labeled PET Analogues Enable the Functional Screening and Characterization of PET-Degrading Enzymes” (ACS Sustainable Chemistry & Engineering, 2024).
